Assay results as given in ChEMBL document CHEMBL1152159, “Possible involvement of radical intermediates in the inhibition of cysteine proteases by allenyl esters and amides” (Bioorg Med Chem Lett, 2008).

Legend:
[1] = biological target: Cathepsin B (Homo sapiens, UniProt P07858); assay: Inhibition of cathepsin B in oxygen free condition
[2] = test system: Rattus norvegicus; assay: Inhibition of water-immersion stress-induced ulcer formation in rat at 3 mg/kg; format: functional
[3] = test system: Rattus norvegicus; assay: Inhibition of water-immersion stress-induced ulcer formation in rat at 1 mg/kg; format: functional
[4] = test system: Rattus norvegicus; assay: Inhibition of water-immersion stress-induced ulcer formation in rat at 10 mg/kg; format: functional
[5] = Inhibition of urease
[6] = test system: Rattus norvegicus; assay: Inhibition of water-immersion stress-induced ulcer formation in rat at 30 mg/kg; details: read-out: INH
[7] = Dissociation constant, pKa of the compound; format: physicochemical

SMILES: CCOC(=O)C(C)=C=C(c1ccccc1)c1ccccc1
- IC50 [1]: 232 µM
- inhibition in vivo at 3 mg/kg [2]: 52%
- inhibition in vivo at 1 mg/kg [3]: 40%
- inhibition in vivo at 10 mg/kg [4]: 87%
- IC50 [5]: 1.1 µM

SMILES: CN/C(=N\CCSCc1nc[nH]c1C)NC#N [CIMETIDINE]
- inhibition in vivo at 30 mg/kg [6]: 74%

SMILES: NC(N)=Nc1nc(CSCC/C(N)=N/S(N)(=O)=O)cs1 [FAMOTIDINE]
- inhibition in vivo at 3 mg/kg [2]: 59%

SMILES: N[C@@H](CCC(=O)N[C@@H](CS)C(=O)NCC(=O)O)C(=O)O [GLUTATHIONE]
- pKa [7]: 8.7
